# Experimental data: patent publication EP2686338B1, “FUNCTIONALIZED BIOMATERIALS FOR TISSUE REGENERATION” (Nanomed3d S.r.l., priority 2011, dated 2018)
# “Also recorded” adds a separate entry of the source. Residues, ends and D or L forms follow the SMILES beside them.
# How the values were obtained:
# [1] = Rheology (frequency, time and strain sweeps); type: physicochemical
# Description: Rheological properties of the self-assembling peptides of the invention were determined using a controlled stress TA Instruments AR-2000ex rheometer (TA Instruments). A cone-and-plate geometry (acrylic cone diameter, 20 mm; angle, 1°; truncation gap 34 µm) was used. Preliminary strain sweeps were performed for each sample to define the linear viscoelastic region, thus ensuring that moduli were independent of strain. Time sweeps, after addition of PBS (1x) were recorded at 25 C (angular frequency ω=1 Hz) and continued till G' plateaued. Frequency sweeps, both for peptide water solutions and for self-assembled scaffolds, were performed at 25 C with the instrument in oscillatory mode at controlled strain of 1 %. Final strain sweeps was performed at 1Hz oscillatory frequency and at 25 C: onset point of failure was calculated by linear interpolation and subsequent determination of the intersection of the G' modes within the linear region and at material failure respectively.
# [2] = test system: murine NSCs; assay: Imaging and cell proliferation (MTS) assay on assembled scaffolds, murine NSCs; type: cell-based
# Description: (§1) In vitro tests were performed as previously described (8), in order to assess whether the biomaterials (assembled hydrogels) obtained with the SAPs of the present invention influenced NSCs adhesion, survival and/or differentiation. SAPeptides (30 µl for each well at a concentration of 10 mg/ml) were assembled into 96 multiwells two hours before cell. Cells (at a concentration of 2x10^4 cells/cm^2) were seeded on the top-surface of each assembled scaffold. Initially, cells were cultured with basal medium supplemented with βFGF (10 ng/ml), added to enhance neuronal progeny differentiation. At 3 days in vitro (DIV), βFGF medium was replaced with Leukemia Inhibitory Factor (LIF, Chemicon) (20 ng/ml) and Brain Derived Neurotrophic Factor (BDNF, Peprotech) (20 ng/ml). Fresh medium was added every three days. For both viability and differentiation assays positive and negative controls consisted of Cultrex-BME® substrate (R&D systems) (1:100 dilution in basal medium) and untreated bottom well surfaces respectively. Cell viability was quantified via CellTiter 96® Aqueous Proliferation Assay (Promega) at 7 DIV as recommended in the Promega protocol. After calibrating the linear response between the cell number and absorbance values, proliferated cell populations were quantified (n=5) by using a Vmax microplate reader (Molecular Devices) at 490nm wavelength. Values, reported as means ± standard error of the mean, were blanked to their respective controls consisting of same substrates and cell culture media without cells.
# [3] = test system: human NSCs; assay: Imaging and cell proliferation (MTS) assay on assembled scaffolds, human NSCs; type: cell-based
# Description: as §1
# [4] = test system: acute contusive spinal cord injury (SCI); assay: Acute contusive spinal cord injury model, BBB locomotor rating; type: in vivo, Sprague-Dawley rats
# Description: (§2) 20 female Sprague-Dawley rats weighting 200-250 gr (Charles River Laboratories) were randomly divided into two groups: 1) spinal cord injured animals treated with Ac-FAQ and 2) spinal cord injured animals treated with the saline solution (control group). Rats were anesthetized with an intraperitoneal injection of ketamine (80 mg/kg) and xylazine (10 mg/kg). After laminectomy at the T9-T10 level, the exposed spinal cord was lesioned (Figure 8A1) by a 10-gram rod dropped from a height of 25 mm by using a MASCIS Impactor device (WM Keck Center for Collaborative Neuroscience, Rutgers University), as previously described 33. Immediately after injury, animals were injected with Ac-FAQ (1% acqueous solution) or the saline solution using an Hamilton syringe held via a micromanipulator (Figure 8A2). The biomaterial or the distilled water was delivered into the lesion site at distances of 500 µm, and at each interval two injections of 0,5 µl each were made, for a total dose of 3 µl. After injection, the muscles were sutured and the skin was closed with wound clips. […]
# Hindlimb recovery was assessed by using the Basso, Beattie, Bresnahan (BBB) Locomotor Rating Scale. Starting from 1 week post-injury, every 3-4 days each rat was observed and recorded with a digital video camera for 4 min in an open field. Rats were evaluated in double-blind experimental settings. […]
# [5] = test system: acute contusive spinal cord injury (SCI); assay: Acute contusive spinal cord injury model, histology and morphometrical quantification; type: in vivo, Sprague-Dawley rats; details: 8 weeks after injury
# Description: as §2
# Quantitative analysis was performed on longitudinal sections of rat spinal cords, spanning between T7 and T12 and including the injury site (T9-T10).
# The presence of axons expressing Gap-43 and βIII within the cyst was investigated. Gap-43 positive fibers were quantified and the relative value of GAP-43 immunopositive area was expressed as percentage of the total cyst area.
# Injured tissue was quantified in seven-to-sixteen longitudinal sections per animal, depending on the cyst extent. […] Sections were stained with hematoxylin/eosin and images were captured (Axioplan2 Zeiss microscope) at 5x magnification, then single images were merged, converted into binary pictures and cavities into the injured area were quantified via Image J software (http://rsb.info.nih.gov/ij/). We measured also the whole injured tissue size. […]
# Axon regeneration/sprouting, into the cyst area, was quantified on six longitudinal sections (spaced 160 µm) per animal via GAP-43 (1:200, Millipore) and Cy3-conjugated antibodies (1:1000, Jackson). […]
# [6] = test system: murine NSCs; assay: Immunofluorescence of differentiated NSC progeny on scaffolds, murine NSCs; type: cell-based; details: 1% scaffold; compared to Cultrex positive control
# Description: as §1
# (§3) Immunofluorescence tests were performed for assaying the phenotypes of the differentiated human and murine NSC progenies. In the case of KLP and Ac-KLP just murine NSC have been used. Ac-KLP and KLP scaffolds were prepared at different concentrations in order to display three different stiffness values (viz. 100, 500 and 1000 Pa). This was done to assess the influence of scaffold concentration (and consequently its stiffness) over NSC differentiation. All the other peptides were tested at 1% v/w concentration instead. The following antibodies were used: rabbit polyclonal against GFAP (1:500, DakoCytomation) for astrocytes, mouse monoclonal against βIII-Tubulin (1:500, Covance) for neurons, mouse monoclonal against GalC (1:200, Chemicon) and O4 (1:200, Chemicon) for oligodendrocyes. Secondary Abs were Goat anti Mouse Alexa 488 (1:1000, Molecular Probes), Goat anti Mouse Cy3 (1:1000, Jackson Immunoresearch), Goat anti Rabbit Cy3 (1:1000, Jackson Immunoresearch). Cell nuclei were counterstained with DAPI (Molecular Probes). Quantitative analyses were performed by counting 100-300 cells for each of 9 randomly chosen fields over a total of 3 independent experiments. Phase contrast and fluorescence images of the adhering cells were acquired via Zeiss microscopes Axioplan 2 and ApoTome System at one week after seeding.
# [7] = test system: human NSCs; assay: Immunofluorescence of differentiated NSC progeny on scaffolds, human NSCs; type: cell-based; details: 1% scaffold; compared to Cultrex positive control
# Description: as §1
# as §3, with “Cell nuclei were counterstained with DAPI (Molecular Probes).” left out
compound,measurement,setting,value
"CC(=O)N[C@@H](Cc1ccccc1)C(=O)N[C@@H](C)C(=O)N[C@@H](CCC(N)=O)C(=O)N[C@@H](CCCNC(=N)N)C(=O)N[C@H](C(=O)N1CCC[C@H]1C(=O)N1CCC[C@H]1C(=O)NCC(=O)NCC(=O)NCC(=O)N[C@@H](CC(C)C)C(=O)N[C@@H](CC(=O)O)C(=O)N[C@@H](CC(C)C)C(=O)N[C@@H](CCCCN)C(=O)N[C@@H](CC(C)C)C(=O)N[C@@H](CC(=O)O)C(=O)N[C@@H](CC(C)C)C(=O)N[C@@H](CCCCN)C(=O)N[C@@H](CC(C)C)C(=O)N[C@@H](CC(=O)O)C(=O)N[C@@H](CC(C)C)C(=O)N[C@@H](CCCCN)C(N)=O)C(C)C [Ac-FAQ, Ac-FAQRVPP-GGG-LDLKLDLKLDLK-CONH2] (Ac-FAQRVPPGGGLDLKLDLKLDLK-NH2)",G' pre-assembling,"[1]; average storage modulus of SAPeptide solution, 1% w/v, 1-100 Hz, before PBS",5.11 Pa
same,G' post-assembling,"[1]; average storage modulus of jellified scaffold, 1% w/v, 1-100 Hz, after PBS",551.9 Pa
same,Onset point (% strain),"[1]; strain percentage at rupture, strain sweep at 1 Hz, 25 C",22.75%
same,"cell morphology, adhesion and spreading",[2]; 7 DIV on assembled hydrogels,spread and branched cells
same,"cell viability (MTS, cell population)","[2]; 7 DIV, scaffolds 10 mg/ml, vs control, P<0.005, n=5",cell population was bigger
same,"cell morphology, adhesion and spreading",[3]; 7 DIV on assembled hydrogels,spread and branched cells
same,"cell viability (MTS, cell population)","[3]; 7 DIV, scaffolds 10 mg/ml, vs control, P<0.03, n=5",cell population was bigger
same,BBB score,"[4]; 1% aqueous solution, 3 µl into lesion site right after injury, week 6,7 and 8 after injury, mean ± SEM",11.95 ± 0.30
same,hindlimb motor recovery in comparison to controls,"[4]; BBB scale, from week 6 after injury, p<0.05",significant improvement; also recorded: significantly improved locomotor recovery
same,Average cumulative cyst area,"[5]; hematoxylin/eosin longitudinal sections, not significant vs controls",28.30 ± 6.70 mm^2
same,"cavities size within the cyst, excluding strands of trabeculae",[5]; not significant vs control,16.77 ± 4.50 mm^2
same,average immunopositivity for GAP-43,[5]; p<0.05 vs saline-injected controls,15.46 ± 1.94 % of the whole cyst area
same,number of neurons,[6],significantly higher
same,number of oligodendrocytes,[6],significantly higher
same,number of neurons,[7],significantly higher
same,number of oligodendrocytes,[7],significantly higher
